# Laboratory results reported in ChEMBL document CHEMBL1201862, “PubChem BioAssay data set” (2004).
#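 Values below derive from 48-hour exposures of cells grown in 96-well plates, with endpoints linearly interpolated between the two concentrations bracketing the appropriate inhibition level. Here, GI50 denotes the concentration required for 50% inhibition of growth.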 The source made the active and inactive calls. No stated cut-off is given here; in the data, active = GI50 up to about 1.1 µM and inactive = higher.
# Tests used:
# Assay in all cases: NCI anticancer screen, dose series, 48 h
# HT-29 = tested on: HT-29
# CAKI-1 = tested on: CAKI-1
# HCT-15 = tested on: HCT-15
# DMS-114 = tested on: DMS-114
# SNB-75 = tested on: SNB-75
# UACC-257 = tested on: UACC-257
# OVCAR-8 = tested on: OVCAR-8
# SK-MEL-2 = tested on: SK-MEL-2
# HCT-116 = tested on: HCT-116
# DMS-273 = tested on: DMS-273
# 786-0 = tested on: 786-0
# RPMI-8226 = tested on: RPMI-8226
# NCI-H23 = tested on: NCI-H23
# SF-268 = tested on: SF-268
# NCI-H522 = tested on: NCI-H522
# Malme-3M = tested on: Malme-3M
# XF498 = tested on: XF498
# OVCAR-3 = tested on: OVCAR-3
# LXFL 529 = tested on: LXFL 529
# UO-31 = tested on: UO-31
# SF-295 = tested on: SF-295
# NCI-H460 = tested on: NCI-H460
# U-251 = tested on: U-251
# HOP-18 = tested on: HOP-18
# IGROV-1 = tested on: IGROV-1
# SNB-19 = tested on: SNB-19
# A498 = tested on: A498
# MOLT-4 = tested on: MOLT-4
# LOX IMVI = tested on: LOX IMVI
# HOP-62 = tested on: HOP-62
# RXF 393 = tested on: RXF 393
# ACHN = tested on: ACHN
# SN12C = tested on: SN12C
# SK-MEL-5 = tested on: SK-MEL-5
# EKVX = tested on: EKVX
# M19-MEL = tested on: M19-MEL
# KM12 = tested on: KM12
# OVCAR-5 = tested on: OVCAR-5
# DLD-1 = tested on: DLD-1
# KM-20L2 = tested on: KM-20L2
# NCI-H226 = tested on: NCI-H226
# SK-OV-3 = tested on: SK-OV-3
# OVCAR-4 = tested on: OVCAR-4
# TK-10 = tested on: TK-10
# A549 = tested on: A549
# SK-MEL-28 = tested on: SK-MEL-28
# CCRF-CEM = tested on: CCRF-CEM
# COLO 205 = tested on: COLO 205
# SF-539 = tested on: SF-539
# SNB-78 = tested on: SNB-78
# HL-60 = tested on: HL-60
# K562 = tested on: K562
# UACC-62 = tested on: UACC-62
# SR = tested on: SR
# M14 = tested on: M14
# HOP-92 = tested on: HOP-92
# SW-620 = tested on: SW-620
# HCC 2998 = tested on: HCC 2998
structure (smiles),measurement,setting,value
CC1(O)C=CC2CCC1C2O (stereo unspecified),GI50,HT-29,> 100 µM (inactive)
same,GI50,CAKI-1,> 100 µM (inactive)
same,GI50,HCT-15,> 100 µM
same,GI50,DMS-114,17.7 µM (inactive)
same,GI50,SNB-75,> 100 µM (inactive)
same,GI50,UACC-257,> 100 µM (inactive)
same,GI50,OVCAR-8,> 100 µM (inactive)
same,GI50,SK-MEL-2,> 100 µM (inactive)
same,GI50,HCT-116,19.7 µM (inactive)
same,GI50,DMS-273,55.6 µM (inactive)
same,GI50,786-0,25.4 µM (inactive)
same,GI50,RPMI-8226,28.2 µM (inactive)
same,GI50,NCI-H23,> 100 µM (inactive)
same,GI50,SF-268,29.3 µM (inactive)
same,GI50,NCI-H522,> 100 µM (inactive)
same,GI50,Malme-3M,> 100 µM (inactive)
same,GI50,XF498,> 100 µM (inactive)
same,GI50,OVCAR-3,> 100 µM (inactive)
same,GI50,LXFL 529,78.9 µM (inactive)
same,GI50,UO-31,> 100 µM (inactive)
same,GI50,SF-295,> 100 µM (inactive)
same,GI50,NCI-H460,46.5 µM (inactive)
same,GI50,U-251,> 100 µM (inactive)
same,GI50,HOP-18,> 100 µM (inactive)
same,GI50,IGROV-1,> 100 µM (inactive)
same,GI50,SNB-19,> 100 µM (inactive)
same,GI50,A498,> 100 µM (inactive)
same,GI50,MOLT-4,> 100 µM (inactive)
same,GI50,LOX IMVI,21.5 µM (inactive)
same,GI50,HOP-62,> 100 µM (inactive)
same,GI50,RXF 393,87.5 µM (inactive)
same,GI50,ACHN,> 100 µM (inactive)
same,GI50,SN12C,> 100 µM (inactive)
same,GI50,SK-MEL-5,> 100 µM (inactive)
same,GI50,EKVX,> 100 µM (inactive)
same,GI50,M19-MEL,> 100 µM (inactive)
same,GI50,KM12,> 100 µM (inactive)
same,GI50,OVCAR-5,> 100 µM (inactive)
same,GI50,DLD-1,58.7 µM (inactive)
same,GI50,KM-20L2,50.9 µM (inactive)
same,GI50,NCI-H226,> 100 µM (inactive)
same,GI50,SK-OV-3,> 100 µM (inactive)
same,GI50,OVCAR-4,> 100 µM (inactive)
same,GI50,TK-10,> 100 µM (inactive)
same,GI50,A549,68.9 µM (inactive)
same,GI50,SK-MEL-28,> 100 µM (inactive)
same,GI50,CCRF-CEM,> 100 µM (inactive)
same,GI50,COLO 205,30.3 µM (inactive)
same,GI50,SF-539,> 100 µM (inactive)
same,GI50,SNB-78,> 100 µM (inactive)
same,GI50,HL-60,> 100 µM (inactive)
same,GI50,K562,> 100 µM (inactive)
same,GI50,UACC-62,> 100 µM (inactive)
same,GI50,SR,23.7 µM (inactive)
same,GI50,M14,> 100 µM (inactive)
CCOC(=O)C1(CC)CCCCC(=O)N1 (stereo unspecified),GI50,HT-29,> 100 µM (inactive)
same,GI50,CAKI-1,> 100 µM (inactive)
same,GI50,HCT-15,> 100 µM
same,GI50,DMS-114,> 100 µM (inactive)
same,GI50,OVCAR-8,> 100 µM (inactive)
same,GI50,DMS-273,> 100 µM (inactive)
same,GI50,786-0,> 100 µM (inactive)
same,GI50,HOP-92,> 100 µM (inactive)
same,GI50,NCI-H23,> 100 µM (inactive)
same,GI50,SF-268,> 100 µM (inactive)
same,GI50,Malme-3M,> 100 µM (inactive)
same,GI50,XF498,> 100 µM (inactive)
same,GI50,OVCAR-3,> 100 µM (inactive)
same,GI50,LXFL 529,> 100 µM (inactive)
same,GI50,UO-31,> 100 µM (inactive)
same,GI50,SF-295,> 100 µM (inactive)
same,GI50,NCI-H460,> 100 µM (inactive)
same,GI50,U-251,> 100 µM (inactive)
same,GI50,HOP-18,> 100 µM (inactive)
same,GI50,IGROV-1,> 100 µM (inactive)
same,GI50,SW-620,> 100 µM (inactive)
same,GI50,LOX IMVI,> 100 µM (inactive)
same,GI50,HOP-62,> 100 µM (inactive)
same,GI50,RXF 393,> 100 µM (inactive)
same,GI50,ACHN,> 100 µM (inactive)
same,GI50,SN12C,> 100 µM (inactive)
same,GI50,HCC 2998,> 100 µM (inactive)
same,GI50,EKVX,> 100 µM (inactive)
same,GI50,M19-MEL,> 100 µM (inactive)
same,GI50,DLD-1,> 100 µM (inactive)
same,GI50,KM-20L2,> 100 µM (inactive)
same,GI50,SK-OV-3,> 100 µM (inactive)
same,GI50,OVCAR-4,> 100 µM (inactive)
same,GI50,TK-10,> 100 µM (inactive)
same,GI50,A549,> 100 µM (inactive)
same,GI50,SK-MEL-28,> 100 µM (inactive)
same,GI50,CCRF-CEM,> 100 µM (inactive)
same,GI50,COLO 205,> 100 µM (inactive)
same,GI50,SNB-78,> 100 µM (inactive)
same,GI50,HL-60,36.2 µM (inactive)
same,GI50,K562,> 100 µM (inactive)
same,GI50,UACC-62,> 100 µM (inactive)
same,GI50,M14,> 100 µM (inactive)
O=C(Nc1ccccc1)c1cccc([N+](=O)[O-])c1,GI50,HT-29,> 100 µM (inactive)
same,GI50,CAKI-1,> 100 µM (inactive)
same,GI50,HCT-15,> 100 µM
same,GI50,DMS-114,92.9 µM (inactive)
same,GI50,SNB-75,> 100 µM (inactive)
same,GI50,OVCAR-8,> 100 µM (inactive)
same,GI50,HCT-116,> 100 µM (inactive)
same,GI50,DMS-273,> 100 µM (inactive)
same,GI50,786-0,> 100 µM (inactive)
same,GI50,RPMI-8226,39.9 µM (inactive)
same,GI50,HOP-92,> 100 µM (inactive)
same,GI50,SF-268,> 100 µM (inactive)
same,GI50,Malme-3M,> 100 µM (inactive)
same,GI50,XF498,> 100 µM (inactive)
same,GI50,OVCAR-3,> 100 µM (inactive)
same,GI50,U-251,> 100 µM (inactive)
same,GI50,HOP-18,> 100 µM (inactive)
same,GI50,IGROV-1,> 100 µM (inactive)
same,GI50,SNB-19,> 100 µM (inactive)
same,GI50,A498,> 100 µM (inactive)
same,GI50,SW-620,> 100 µM (inactive)
same,GI50,MOLT-4,60.8 µM (inactive)
same,GI50,HOP-62,> 100 µM (inactive)
same,GI50,ACHN,> 100 µM (inactive)
same,GI50,SN12C,> 100 µM (inactive)
same,GI50,HCC 2998,> 100 µM (inactive)
same,GI50,SK-MEL-5,> 100 µM (inactive)
same,GI50,EKVX,> 100 µM (inactive)
same,GI50,M19-MEL,> 100 µM (inactive)
same,GI50,KM-20L2,37.5 µM (inactive)
same,GI50,A549,> 100 µM (inactive)
same,GI50,SK-MEL-28,> 100 µM (inactive)
same,GI50,CCRF-CEM,> 100 µM (inactive)
same,GI50,COLO 205,> 100 µM (inactive)
same,GI50,SF-539,> 100 µM (inactive)
same,GI50,SNB-78,> 100 µM (inactive)
same,GI50,K562,> 100 µM (inactive)
same,GI50,UACC-62,> 100 µM (inactive)
